Patent US8455394B2 (priority 2009, dated 2013)

Tests used:
[1] = tested on: Leptosphaeria nodorum (LEPTNO); experiment: In vitro fungitoxicity assay against Leptosphaeria nodorum in copper-minus and copper-plus liquid medium (growth inhibition, light scattering); format: cell-based; details: Parastagonospora nodorum; compound 0.05 μg/mL, copper-minus medium, 72 h at 25° C.; read-out: LEPTNO % Inhn. Minus Copper Observed
Experimental: In vitro fungitoxicity assays against Leptosphaeria nodorum (LEPTNO) were conducted using the liquid growth medium described by Coursen and Sisler (American Journal of Botany 1960, 47, 541-549) except that copper micronutrient, normally included as CuSO4, was omitted. The medium, termed “copper-minus”, was prepared by dissolving 10 g glucose, 1.5 g K2HPO4, 2 g KH2PO4 and 1 g (NH4)2SO4 in 1 liter of deionized water and treating the solution with 0.5 g Chelex 100 resin (Bio-Rad Analytical grade, 50-100 mesh, sodium form, cat#142-2822) by stirring at room temperature for 1 h. MgSO4.7H2O (0.5 g) was added, and stirring was continued for a further hour. Trace elements (minus CuSO4), and vitamins described by Coursen and Sisler were added from concentrated stock solutions and the entire medium was sterilized by filtration. Medium containing copper was prepared by adding CuCl2.2H2O to the copper-minus medium at 20 μM. […]
LEPTNO was grown on potato dextrose agar in 9 cm diameter petri dishes for 7 days. […] Microtiter plates were inoculated with 100 μL of this spore suspension and the plates incubated at 25° C. for 72 h before assessing fungal growth by measuring light scattering in a NepheloStar plate reader. Growth inhibition was determined by comparing growth in the presence of test compound with growth in control wells lacking test compound. […]

[2] = tested on: Phytophthora capsici; experiment: In vitro fungitoxicity assay against Phytophthora capsici in copper-minus AS and copper-plus AS medium; format: cell-based; details: CuCl2 50 uM without any test compound, across experiments
Experimental: In vitro fungitoxicity assays against Phytophthora capsici were conducted using the asparagine-sucrose (AS) medium described in Canadian Journal of Microbiology 1961, 7, 15-25, except that copper micronutrient, normally included as CuSO4, was omitted. The medium, termed “copper-minus AS”, was prepared by dissolving 2 g asparagine, 0.43 g KH2PO4, 0.3 g K2HPO4, 0.4 mL of a 0.5 mg/mL thiamine-HCl solution and 15 g sucrose in 1 liter of deionized water and treating the solution with 0.5 g Chelex 100 resin (Bio-Rad Analytical grade, 50-100 mesh, sodium form, cat#142-2822) by stirring at room temperature for 1 h. The pH was adjusted to 6.4, then MgSO4.7H2O (100 μg/mL), FeSO4.7H2O (1 μg/mL), CaCl2 (50 μg/mL), ZnSO4.7H2O (1 μg/mL), NaMoO4.2H2O (0.2 μg/mL) and MnCl2.4H2O (0.2 μg/mL) were added and the entire medium was sterilized by filtration. […]
Phytophthora capsici was grown on petri plates, 9 cm in diameter, containing 15 mL V-8 agar, pH 7.0, containing 200 mL V-8 juice, 4 g CaCO3, and 20 g agar per liter. […] Microtiter plates were inoculated with 100 μL of spore suspension and incubated at 25° C. for 48 h before assessing fungal growth by measuring light scattering in a NepheloStar plate reader. Growth inhibition was determined by comparing growth in the presence of test compound with growth in control wells lacking test compound. […]

Structure (SMILES) | inhibition of growth at 0.05 µg/mL [1] | % Inhn (copper chloride alone; printed in column Minus copper Observed) [2]
O=C(N/N=C/c1cccc(F)c1O)c1ccccc1 [Compound 1] | 4.4% | –
O.O.[Cl][Cu][Cl] [CuCl2, CuCl2.2H2O] | – | 4.5 ± 7.9%
